Patent US20260223850A1, “SUBSTITUTED PYRROLIDONE COMPOUND, PREPARATION METHOD THEREFOR, COMPOSITION AND APPLICATION THEREOF” (QINGDAO KINGAGROOT CHEMICAL COMPOUND CO., LTD., priority 2023, published 2026)

Legend:
Echinochloa crusgalli = experiment: Seedling stage sealing experiment for water-seeding; assay type: in vivo; settings: 120 g a.i./ha, 15 days, fresh weight control rate
Source text: (§1) The activity level criteria for plant damage (i.e., growth control rate) are as follows: • Level 9: completely dead; • Level 8: growth control rate greater than or equal to 90% and less than 100%; • Level 7: growth control rate greater than or equal to 80% and less than 90%; • Level 6: growth control rate greater than or equal to 70% and less than 80%; • Level 5: growth control rate greater than or equal to 50% and less than 70%; • Level 4: growth control rate greater than or equal to 30% and less than 50%; • Level 3: growth control rate greater than or equal to 20% and less than 30%; • Level 2: growth control rate greater than or equal to 10% and less than 20%; • Level 1: growth control rate less than 10%; • Level 0: no effect.
(§2) The above growth control rates are fresh weight control rates.
(§3) Echinochloa phyllopogon, Digitaria sanguinalis, Huaidao (rice cultivar), etc. were broadcasted on the surface of nutrition bowls filled with soil and fully covered by soil. The foregoing well-prepared nutrition bowls were then placed in a cultivation box with water filled to a suitable height to keep the soil in the nutrition bowls moist. A test compound of the present invention was individually dissolved with acetone, then diluted into solution of a certain concentration using a certain amount of water, and sprayed using a spray tower. The plants were placed on a greenhouse seedbed and cultured for 15 days, and the experimental results were then collected. The compound was applied at 120, 60, 30 and 15 g a.i./ha in triplicate, and the results were averaged.

Echinochloa phyllopogon = experiment: as above; assay type: in vivo; settings: 120 g a.i./ha, 15 days, fresh weight control rate
Source text: as §1, §2, §3

[1] = spray, seedling stage sealing for water-seeding

| Compound | Echinochloa crusgalli activity level (growth control rate) (Echinochloa crusgalli; seedling stage sealing) | Echinochloa phyllopogon activity level (growth control rate) (Echinochloa phyllopogon; seedling stage sealing) | Echinochloa crusgalli activity level (growth control rate) (Echinochloa crusgalli; [1]) | Echinochloa phyllopogon activity level (growth control rate) (Echinochloa phyllopogon; [1]) |
| --- | --- | --- | --- | --- |
| CN1C[C@H](c2cccc(C(F)(F)F)c2)[C@@H](C(=O)Nc2cnn(C)c2Cl)C1=O [1′] | 9 | 6 (Level 6: growth control rate greater than or equal to 70% and less than 80%) |  |  |
| CCn1ncc(NC(=O)[C@H]2C(=O)N(C)C[C@@H]2c2cccc(C(F)(F)F)c2)c1Cl [95′] | 9 | 8 (Level 8: growth control rate greater than or equal to 90% and less than 100%) |  |  |
| Cc1ccccc1[C@H]1CN(C)C(=O)[C@@H]1C(=O)Nc1cnn(C)c1Cl [124′] | 6 (Level 6: growth control rate greater than or equal to 70% and less than 80%) |  |  |  |
| CN1C[C@H](c2cccc(C(F)(F)F)c2)[C@@H](C(=O)Nc2cnn(C)c2N)C1=O [198′] | 5 (Level 5: growth control rate greater than or equal to 50% and less than 70%) |  |  |  |
| CO/N=C/c1cccc([C@H]2CN(C)C(=O)[C@@H]2C(=O)Nc2cnn(C)c2Cl)c1 [232′] | 6 (Level 6: growth control rate greater than or equal to 70% and less than 80%) |  |  |  |
| CC(C)c1ccc([C@H]2CN(C)C(=O)[C@@H]2C(=O)Nc2cnn(C)c2Cl)cc1 [245′] |  | 5 (Level 5: growth control rate greater than or equal to 50% and less than 70%) |  |  |
| COCc1ccc([C@H]2CN(C)C(=O)[C@@H]2C(=O)Nc2cnn(C)c2Cl)cc1 [253′] | 6 (Level 6: growth control rate greater than or equal to 70% and less than 80%) |  |  |  |
| CN1C[C@H](c2ccc(C(F)(F)F)c(F)c2Cl)[C@@H](C(=O)Nc2cnn(C)c2Cl)C1=O [329′] | 7 (Level 7: growth control rate greater than or equal to 80% and less than 90%) | 6 (Level 6: growth control rate greater than or equal to 70% and less than 80%) |  |  |
| Cc1ccc([C@H]2CN(C)C(=O)[C@@H]2C(=O)Nc2cnn(C)c2Cl)s1 [335′] | 7 (Level 7: growth control rate greater than or equal to 80% and less than 90%) |  |  |  |
| CN1C[C@H](c2cccc(Oc3ccccn3)c2)[C@@H](C(=O)Nc2cnn(C)c2Cl)C1=O [360′] | 7 (Level 7: growth control rate greater than or equal to 80% and less than 90%) |  |  |  |
| CSc1c(NC(=O)[C@H]2C(=O)N(C)C[C@@H]2c2cccc(C)c2)cnn1C [393′] | 9 | 9 |  |  |
| Cc1cccc([C@H]2CN(C)C(=O)[C@@H]2C(=O)Nc2cnn(C(F)F)c2C2CC2)c1 [395′] | 9 | 9 |  |  |
| CCc1c(NC(=O)[C@H]2C(=O)N(C)C[C@@H]2c2cccc(C(F)(F)F)c2)cnn1C(F)F [403′] | 9 | 9 |  |  |
| CN1C[C@H](c2cccc(C(F)(F)F)c2)[C@@H](C(=O)Nc2cnn(C)c2C(F)(F)F)C1=O [404′] | 9 | 9 |  |  |
| CN1C[C@H](c2cccc(OC(F)(F)F)c2)[C@@H](C(=O)Nc2cnn(C(F)F)c2Cl)C1=O [414′] | 9 | 9 |  |  |
| Cc1ccc([C@H]2CN(C)C(=O)[C@@H]2C(=O)Nc2cnn(C)c2C)cc1 [415′] | 9 | 9 |  |  |
| Cc1cc(C)cc([C@H]2CN(C)C(=O)[C@@H]2C(=O)Nc2cnn(C(F)F)c2C2CC2)c1 [429′] | 9 | 9 |  |  |
| CSc1c(NC(=O)[C@H]2C(=O)N(C)C[C@@H]2c2cc(C)cc(C)c2)cnn1C [431′] | 9 | 9 |  |  |
| Cc1cc(C)cc([C@H]2CN(C)C(=O)[C@@H]2C(=O)Nc2cnn(C)c2C#N)c1 [434′] | 9 | 9 |  |  |
| Cc1ccc([C@H]2CN(C)C(=O)[C@@H]2C(=O)Nc2cnn(C(F)F)c2Cl)cc1F [444′] |  |  | 9 | 9 |
| Cc1cc(C)cc([C@H]2CN(C)C(=S)[C@@H]2C(=S)Nc2cnn(C)c2Cl)c1 [451′] |  |  | 8 (Level 8: growth control rate greater than or equal to 90% and less than 100%) | 7 (Level 7: growth control rate greater than or equal to 80% and less than 90%) |
| CCc1c(NC(=O)[C@H]2C(=O)N(C)C[C@@H]2c2cccc(C)c2)cnn1C(F)F [466′] |  |  | 9 | 9 |
| CSc1c(NC(=O)[C@H]2C(=O)N(C)C[C@@H]2c2cccc(C(F)(F)F)c2)cnn1C [479′] |  |  | 9 | 9 |
| Cc1cc([C@H]2CN(C)C(=O)[C@@H]2C(=O)Nc2cnn(C(F)F)c2Cl)cc(C)c1C [515′] |  |  | 9 | 9 |
| C=C(C)c1ccc(C2CN(C)C(=O)C2C(=O)Nc2cnn(C)c2Cl)cc1 (stereo not shown) [Compound 252] | 7 (Level 7: growth control rate greater than or equal to 80% and less than 90%) | 9 |  |  |
| CN1CC(c2ccc(OC(F)(F)F)cc2)C(C(=O)Nc2cnn(C)c2Cl)C1=O (stereo not shown) [Compound 254] | 5 (Level 5: growth control rate greater than or equal to 50% and less than 70%) | 5 (Level 5: growth control rate greater than or equal to 50% and less than 70%) |  |  |
| CN1CC(c2ccc(-c3cccc(C(F)(F)F)c3)cc2)C(C(=O)Nc2cnn(C)c2Cl)C1=O (stereo not shown) [Compound 261] | 6 (Level 6: growth control rate greater than or equal to 70% and less than 80%) | 5 (Level 5: growth control rate greater than or equal to 50% and less than 70%) |  |  |
| CN1CC(c2cc(F)cc(F)c2F)C(C(=O)Nc2cnn(C)c2Cl)C1=O (stereo not shown) [Compound 332] | 5 (Level 5: growth control rate greater than or equal to 50% and less than 70%) |  |  |  |
| CN1CC(c2ccc3occc3c2)C(C(=O)Nc2cnn(C)c2Cl)C1=O (stereo not shown) [Compound 355] | 5 (Level 5: growth control rate greater than or equal to 50% and less than 70%) |  |  |  |
